Test results published in publication PMC10870298, “Rational Design of Antifungal Peptides Based on the γ-Core Motif of a Neosartorya (Aspergillus) fischeri Antifungal Protein to Improve Structural Integrity, Efficacy, and Spectrum” (ACS Omega, 2024).
Like-named read-outs stand apart in the source and are kept apart here. Residues, ends and D or L forms follow the SMILES beside them. *: point of attachment. tBu = CC(C)(C)*

Experiments:
A. fumigatus CBS 101355 = format: cell-based, Aspergillus fumigatus
Description: (§1) The lyophilized and stored peptides were dissolved in sterile ddH2O (5 mg mL^–1). Then, half of the volume of the peptide stock was tested for antifungal activity and stored at −20 °C until RP-HPLC and ECD analyses. This peptide sample is termed the −20 °C sample. The other half volume of the stock was stored at 4 °C for 7 days, tested for antifungal activity, and stored at −20 °C until RP-HPLC and ECD analyses. This peptide sample is referred to as the 4 °C sample.
(§2) MICs of NFAP γ-core peptide derivatives were determined against C. albicans SC5314 and A. fumigatus CBS 101355. These fungi were maintained on yeast peptone dextrose agar (YPD: 10 g L^–1 yeast extract, 20 g L^–1 peptone, 20 g L^–1D-glucose, 15 g L^–1 agar) and malt extract agar (MEA, Sigma-Aldrich) slants at 4 °C, respectively. Susceptibility tests were performed in low cationic medium (LCM: 5 g L^–1D-glucose, 0.25 g L^–1 yeast extract, 0.125 g L^–1 peptone) according to Tóth et al. (2018)[16] and Tóth et al. (2020)[19] for yeasts and molds, respectively, with slight modifications. Briefly, 100 μL NFAP γ-core peptide (0.39–400 μg mL^–1 in two-fold serial dilutions in LCM) was mixed with 100 μL of 2 × 10^5 mL^–1 mid-log phase C. albicans cells or freshly harvested A. fumigatus conidia in LCM in a flat-bottom 96-well microtiter plate (TC Plate 96 Well, Suspension, F; Sarstedt, Nümbrecht, Germany). A mixture of 100 μL of medium (LCM) without NFAP γ-core peptide derivative and 100 μL of cell or conidium suspension served as the untreated growth control, whereas 200 μL of LCM was used for background calibration. The plates were incubated statically for 48 h (C. albicans) or 72 h (A. fumigatus) at 30 °C. The absorbance (OD620) of each well was measured after shaking for 5 s using a microtiter plate reader (SPECTROstar Nano; BMG Labtech, Ortenberg, Germany). The absorbance of the untreated control was taken as 100% growth for the MIC calculation. MIC was defined as the lowest peptide concentration that reduced fungal growth by […] compared with the untreated control. Susceptibility tests were performed in two technical replicates and were repeated at least two times.

C. albicans SC5314 [1] = format: cell-based, Candida albicans; conditions: SC5314, 48 h
Description: as §1, §2

[2] = Structural integrity (disulfide bridge formation on storage) by RP-HPLC; format: physicochemical
Description: The half volume of the dissolved lyophilized peptides was promptly stored at −20 °C for 7 days. The other half volume of these peptides was stored at 4 °C for 7 days (oxidative condition) and then at −20 °C until RP-HPLC and electronic circular dichroism (ECD) analyses were performed. Herein, these peptide samples are referred to as −20 and 4 °C samples, respectively.
as §1
Crude peptides were purified by semipreparative RP-HPLC using a solvent system of (A) 0.1% TFA and (B) 80% acetonitrile, 0.1% TFA, and a linear gradient from 0 to 30% (B) in 60 min. Purification was performed on a Phenomenex Jupiter Proteo 90 Å column (250 × 10 mm) using a Shimadzu HPLC apparatus (Berlin, Germany). Absorbance was detected at 220 nm. Purity was evaluated by analytical RP-HPLC using a Phenomenex Luna 10 μ C18 100 A column and an Agilent 1100 HPLC instrument (Palo Alto, CA, USA).

C. albicans SC5314 [3] = experiment: Cell-killing efficacy: growth kinetics of high-density culture and drop viability on YPD agar; format: cell-based, Candida albicans; conditions: for growth of high-density C. albicans culture: OD600 = 0.2 mid-log cells, LCM, 30 °C, 24 h; for proportion of cells able to multiply (culture drops on YPD agar after treatment): 24 h treatment at 30 °C, then 5 μL drops on YPD agar 24 h at 30 °C
Description: Compared with MIC determination, monitoring the growth kinetics of high-density cell cultures in the presence of various peptide concentrations allows for detailed insight into the cell-killing efficacy over time and how cysteine modifications influence it. Therefore, the growth of high-density C. albicans cell culture (OD600 = 0.2) was monitored in the presence of 0.5× MIC, 1× MIC, and 2× MIC of the NFAP γ-core peptides.
The experiment was conducted in a flat-bottom 96-well microtiter plate (TC Plate 96 Well, Suspension, F; Sarstedt, Nümbrecht, Germany): 100 μL of OD600 = 0.2 mid-log phase cells prepared in LCM were mixed with 100 μL of 1× MIC, 2× MIC, or 4× MIC of the peptide diluted in LCM. The plates were incubated statically at 30 °C for 24 h. The absorbance (OD600) of each well was then measured after shaking for 5 s every hour using a microtiter plate reader (BioTek Synergy HTX Multi-Mode Microplate Reader; Agilent Technologies, Santa Clara, CA, USA). Untreated cells (100 μL LCM mixed with 100 μL OD600 = 0.2 mid-log phase cells prepared in LCM) served as growth controls. To examine the viability of the treated C. albicans cells, 5–5 μL cultures from each well were dropped onto the YPD agar plate after the last OD600 measurement and allowed to dry before incubation at 30 °C for 24 h. The plates were photographed (Versa Doc Imaging System 4000 MP; Bio-Rad, Hercules, CA, USA). These experiments were repeated two times, involving three technical replicates.

[4] = system: human cell lines (monocytes, colonic epithelial cells, keratinocytes); conditions: cited from earlier work
Description: (§3) The clinical application of antimicrobial peptides is limited by their potential hemolytic activity, toxicity, immunogenicity, and other side effects.[27] […] Herein, we investigated how cysteine–serine substitution(s) and S-tert-butylation of these peptides influence hemolytic activ ...

sheep blood = conditions: cited from earlier work
Description: as §3

[5] = system: plant pathogenic filamentous fungi; conditions: previous studies; cited from earlier work
Description: Presumably, these peptides exert an antifungal mechanism through membrane disruption,[17] and the high positive net charge supports this mechanism. Additionally, neither hydrop ...

[6] = 4 °C sample: 5 mg mL^–1 in sterile ddH2O stored at 4 °C for 7 days (oxidative condition)
[7] = 1 and 2× MIC, OD600 hourly, repeated two times, three technical replicates

Compound	MIC (A. fumigatus CBS 101355; CBS 101355, 72 h) [μg mL^–1]	MIC (C. albicans SC5314 [1]) [μg mL^–1]	oxidation / disulfide bridge formation (in words) [2, 6]	proportion of cells able to multiply (culture drops on YPD agar after treatment) (C. albicans SC5314 [3]; 2× MIC)	growth of high-density C. albicans culture (C. albicans SC5314 [3]; 2× MIC)	antifungal activity [5]	also measured
CC[C@H](C)[C@H](NC(=O)[C@H](CCCCN)NC(=O)[C@H](CS)NC(=O)[C@H](CCCCN)NC(=O)[C@@H](NC(=O)[C@H](CCCCN)NC(=O)[C@@H](NC(=O)[C@H](CCC(=O)O)NC(C)=O)[C@@H](C)CC)[C@@H](C)CC)C(=O)N[C@@H](CCCCN)C(=O)N[C@@H](CCCCN)C(=O)N[C@H](C(=O)N[C@@H](CCCCN)C(=O)N[C@@H](CS)C(=O)N[C@@H](CCCCN)C(N)=O)[C@@H](C)CC [NFAPimpγGZ] (Ac-EIKIKCKIKKIKCK-NH2)	25	12.5	fully oxidized to the cyclic form	highly reduce the proportion of cells able to multiply	total or high growth inhibitions	effectively inhibit the growth	share of the peptide with intermolecular disulfide bridges (in words) ([2]; –20 °C sample): one-third; share of the peptide with intramolecular disulfide bridges (in words) ([2]; –20 °C sample): approximately one-third; growth of high-density C. albicans culture (C. albicans SC5314 [3]; 1× MIC): allowed the multiplication of C. albicans cells within 24 h; toxicity to various human cell lines [4]: impaired the viability of keratinocytes at higher concentrations; hemolysis (sheep blood): did not cause hemolysis
CC[C@H](C)[C@H](NC(=O)[C@H](CCCCN)NC(=O)[C@H](CSC(C)(C)C)NC(=O)[C@H](CCCCN)NC(=O)[C@@H](NC(=O)[C@H](CCCCN)NC(=O)[C@@H](NC(=O)[C@H](CCC(=O)O)NC(C)=O)[C@@H](C)CC)[C@@H](C)CC)C(=O)N[C@@H](CCCCN)C(=O)N[C@@H](CCCCN)C(=O)N[C@H](C(=O)N[C@@H](CCCCN)C(=O)N[C@@H](CSC(C)(C)C)C(=O)N[C@@H](CCCCN)C(N)=O)[C@@H](C)CC [NFAPimpγGZ^S-tBu] (Ac-EIKIKC(tBu)KIKKIKC(tBu)K-NH2)	25	25	–	highly reduce the proportion of cells able to multiply	–	–	growth of high-density C. albicans culture (C. albicans SC5314 [3]; 1× MIC): inhibited the growth
CC(=O)N[C@@H](CCC(=O)O)C(=O)N[C@@H](Cc1ccc(O)cc1)C(=O)N[C@@H](CCCCN)C(=O)NCC(=O)N[C@@H](CCCCN)C(=O)N[C@@H](CS)C(=O)N[C@@H](CCCCN)C(=O)N[C@H](C(=O)N[C@@H](CCCCN)C(=O)N[C@@H](CCCCN)C(=O)N[C@@H](CC(N)=O)C(=O)N[C@@H](CCCCN)C(=O)N[C@@H](CS)C(=O)N[C@@H](CCCCN)C(N)=O)[C@@H](C)O [NFAPimpγ] (Ac-EYKGKCKTKKNKCK-NH2)	>200	–	total amount of the peptide was cyclized	highly reduce the proportion of cells able to multiply	–	effectively inhibit the growth	share of the peptide with intramolecular disulfide bridges (cyclic form) ([2]; –20 °C sample: 5 mg mL^–1 in sterile ddH2O stored at −20 °C for 7 days): approximately 60%; toxicity to various human cell lines [4]: not toxic; hemolysis (sheep blood): did not cause hemolysis
CC(=O)N[C@@H](CCC(=O)O)C(=O)N[C@@H](Cc1ccc(O)cc1)C(=O)N[C@@H](CCCCN)C(=O)NCC(=O)N[C@@H](CCCCN)C(=O)N[C@@H](CSC(C)(C)C)C(=O)N[C@@H](CCCCN)C(=O)N[C@H](C(=O)N[C@@H](CCCCN)C(=O)N[C@@H](CCCCN)C(=O)N[C@@H](CC(N)=O)C(=O)N[C@@H](CCCCN)C(=O)N[C@@H](CSC(C)(C)C)C(=O)N[C@@H](CCCCN)C(N)=O)[C@@H](C)O [NFAPimpγ^S-tBu] (Ac-EYKGKC(tBu)KTKKNKC(tBu)K-NH2)	25	50	–	–	–	–	MIC (A. fumigatus CBS 101355; storage sample not specified, LCM, 72 h at 30 °C): 25 μg mL^–1; growth of high-density C. albicans culture (C. albicans SC5314 [3]; 0.5× MIC, compared with unmodified NFAPimpγ): extended the time when the C. albicans culture started to multiply intensively; proportion of cells able to multiply (culture drops on YPD agar after treatment) (C. albicans SC5314 [3]; 1–2× MIC): highly reduce the proportion of cells able to multiply
CC(=O)N[C@@H](CCC(=O)O)C(=O)N[C@@H](Cc1ccc(O)cc1)C(=O)N[C@@H](CCCCN)C(=O)NCC(=O)N[C@@H](CCC(=O)O)C(=O)N[C@@H](CS)C(=O)N[C@@H](Cc1ccccc1)C(=O)N[C@H](C(=O)N[C@@H](CCCCN)C(=O)N[C@@H](CC(=O)O)C(=O)N[C@@H](CC(N)=O)C(=O)N[C@H](C(=O)N[C@@H](CS)C(=O)N[C@@H](CCCCN)C(N)=O)[C@@H](C)O)[C@@H](C)O [NFAPγ] (Ac-EYKGECFTKDNTCK-NH2)	> 200	> 200	most of this peptide formed intramolecular, whereas a smaller part formed an intermolecular disulfide bond	–	–	did not exhibit antifungal activity	–
Ac-EIKIKCKIKKIKSK-NH2 [NFAPimpγGZ^C13S]	50	25	–	–	total or high growth inhibitions	–	–
Ac-EIKIKSKIKKIKSK-NH2 [NFAPimpγGZ^C6S,C13S]	50	25	–	–	could not inhibit the growth	–	–
Ac-EYKGKCKTKKNKSK-NH2 [NFAPimpγ^C13S]	>200	50	–	–	–	–	share of the peptide in dimer form [2, 6]: approximately 60%; growth of high-density C. albicans culture (C. albicans SC5314 [3]; [7]): could not fully inhibit the growth
Ac-EYKGKSKTKKNKSK-NH2 [NFAPimpγ^C6S,C13S]	>200	50	–	–	–	–	growth of high-density C. albicans culture (C. albicans SC5314 [3]; [7]): could not fully inhibit the growth
